US20230091225A1, “Bifunctional chimeric heterocyclic compounds for targeted degradation of androgen receptors and use thereof” (HINOVA PHARMACEUTICALS INC., priority 2019, published 2023)
Like-named read-outs stand apart in the source and are kept apart here.

Target: T1, androgen receptor (AR) (Homo sapiens, UniProt P10275)
T1 sequence (P10275 1-920): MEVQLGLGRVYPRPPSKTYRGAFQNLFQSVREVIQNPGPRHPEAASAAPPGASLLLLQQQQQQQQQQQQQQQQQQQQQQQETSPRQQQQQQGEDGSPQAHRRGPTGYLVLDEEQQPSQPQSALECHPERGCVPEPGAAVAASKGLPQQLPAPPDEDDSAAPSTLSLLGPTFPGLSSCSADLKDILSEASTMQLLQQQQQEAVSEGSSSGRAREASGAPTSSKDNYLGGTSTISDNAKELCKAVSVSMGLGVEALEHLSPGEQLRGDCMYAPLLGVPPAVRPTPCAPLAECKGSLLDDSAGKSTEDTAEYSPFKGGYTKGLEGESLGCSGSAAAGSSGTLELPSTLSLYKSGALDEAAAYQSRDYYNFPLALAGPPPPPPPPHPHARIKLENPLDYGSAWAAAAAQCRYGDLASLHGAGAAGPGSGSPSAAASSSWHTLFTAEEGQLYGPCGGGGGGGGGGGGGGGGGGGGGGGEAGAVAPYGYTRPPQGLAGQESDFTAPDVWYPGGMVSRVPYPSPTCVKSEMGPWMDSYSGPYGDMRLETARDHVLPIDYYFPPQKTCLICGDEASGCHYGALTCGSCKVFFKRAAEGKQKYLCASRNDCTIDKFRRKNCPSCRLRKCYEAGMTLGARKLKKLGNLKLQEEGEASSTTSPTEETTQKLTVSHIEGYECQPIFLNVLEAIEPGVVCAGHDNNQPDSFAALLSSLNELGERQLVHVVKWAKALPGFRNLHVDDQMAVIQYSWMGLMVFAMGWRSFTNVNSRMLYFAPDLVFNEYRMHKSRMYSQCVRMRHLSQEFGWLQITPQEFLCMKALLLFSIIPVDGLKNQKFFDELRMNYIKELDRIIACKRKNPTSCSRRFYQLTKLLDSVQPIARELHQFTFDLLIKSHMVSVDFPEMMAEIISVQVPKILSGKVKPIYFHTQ
Experiment: Degradation of androgen receptor (AR) protein in VCaP cells by ELISA
Type: cell-based
Conditions: for DC50: read-out: DC50; for Dmax: VCaP, read-out: Dmax (%)

[1] = AR degradation, VCaP cells, 16 h, ELISA, Table 3-1

| SMILES | Dmax (%) | DC50 [nM] | DC50 [1] [nM] | Dmax [1] [%] | Dmax (%) [1] |
| --- | --- | --- | --- | --- | --- |
| CC1(C)[C@H](Oc2ccc(C#N)c(Cl)c2)C(C)(C)[C@H]1N1Cc2nc(C#CC3CCC(N4CC5(CN(c6ccc7c(c6)C(=O)N([C@@H]6CCC(=O)NC6=O)C7=O)C5)C4)CC3)ccc2C1=O (some centres unmarked) [Compound 351, 2-Chloro-4-((1r,3r)-3-(2-((4-(6-(2-(2,6-dioxopiperidin-3-yl)-1,3-dioxoisoindolin-5-yl)-2,6-diazaspiro[3.3]heptane-2-yl)cyclohexyl)ethynyl)-5-oxo-5,7-dihydro-6H-pyrrolo[3,4-b]pyridin-6-yl)-2,2,4,4-tetramethylcyclobutoxy) benzonitrile] | ++++ (key: A: >80%; B: 79%-50%; C: 49%-25%; D: <25%) | < 10 | – | – | – |
| CC1(C)[C@H](Oc2ccc(C#N)c(Cl)c2)C(C)(C)[C@H]1N1Cc2nc(C#C[C@H]3C[C@H](N4CCN(c5ccc6c(c5)C(=O)N(C5CCC(=O)NC5=O)C6=O)CC4)C3)ccc2C1=O (some centres unmarked) [Compound 355] | – | – | < 10 | > 80 | – |
| CC1(C)[C@H](Oc2ccc(C#N)c(Cl)c2)C(C)(C)[C@H]1N1Cc2nc(C#C[C@H]3C[C@H](N4CCN(c5cc6c(cc5F)C(=O)N(C5CCC(=O)NC5=O)C6=O)CC4)C3)ccc2C1=O (some centres unmarked) [Compound 357] | – | – | < 10 | > 80 | – |
| CC1(C)[C@H](Oc2ccc(C#N)c(Cl)c2)C(C)(C)[C@H]1N1Cc2nc(C#CC3CC(N4CC5CN(c6ccc7c(c6)C(=O)N(C6CCC(=O)NC6=O)C7=O)CC5C4)C3)ccc2C1=O (some centres unmarked) [Compound 358, 2-chloro-4-((1r,3r)-3-(2-((3-(5-(2-(2,6-dioxopiperidin-3-yl)-1,3-dioxoisoindolin-5-yl)hexahydropyrrolo[3,4-c]pyrrol-2(1H)-yl)cyclobutyl)ethynyl)-5-oxo-5,7-dihydro-6H-pyrrolo[3,4-b]pyridin-6-yl)-2,2,4,4-tetramethylcyclobutoxy)benzonitrile] | – | – | 10 to 100 | 60 to 80 | – |
| CC1(C)[C@H](Oc2ccc(C#N)c(Cl)c2)C(C)(C)[C@H]1N1Cc2nc(C#CC3CC(N4CC5CN(c6ccc7c(c6)C(=O)N(C6CCC(=O)NC6=O)C7=O)CC5C4)C3)ccc2C1=O (some centres unmarked) [Compound 359, 2-Chloro-4-((1r,3r)-3-(2-((3-(5-(2-(2,6-dioxopiperidin-3-yl)-1,3-dioxoisoindolin-5-yl)hexahydropyrrolo[3,4-c]pyrrol-2(1H)-yl)cyclobutyl)ethynyl)-5-oxo-5,7-dihydro-6H-pyrrolo[3,4-b]pyridin-6-yl)-2,2,4,4-tetramethylcyclobutoxy)benzonitrile] | – | – | 10 to 100 | – | – |
| CC1(C)[C@H](Oc2ccc(C#N)c(Cl)c2)C(C)(C)[C@H]1N1Cc2nc(C#CC3CC(N4CC5CN(c6cc7c(cc6F)C(=O)N(C6CCC(=O)NC6=O)C7=O)CC5C4)C3)ccc2C1=O (some centres unmarked) [Compound 360] | – | – | 10 to 100 | 60 to 80 | – |
| CC1(C)[C@H](Oc2ccc(C#N)c(Cl)c2)C(C)(C)[C@H]1N1Cc2nc(C#CC3CC(N4CC5CN(c6cc7c(cc6F)C(=O)N(C6CCC(=O)NC6=O)C7=O)CC5C4)C3)ccc2C1=O (some centres unmarked) [Compound 361, 2-Chloro-4-((1r,3r)-3-(2-((3-(5-(2,6-dioxopiperidin-3-yl)-6-fluoro-1,3-dioxoisoindolin-5-yl)hexahydropyrrolo[3,4-c]pyrrol-2(1H)-cyclobutyl)ethynyl)-5-oxo-5,7-dihydro-6H-pyrrolo[3,4-b]pyridin-6-yl)-2,2,4,4-tetramethylcyclobutoxy) benzonitrile] | – | – | 10 to 100 | – | – |
| CC1(C)[C@H](Oc2ccc(C#N)c(Cl)c2)C(C)(C)[C@H]1N1Cc2nc(C#CC3CCC(N4CCC5(CC4)CN(c4ccc6c(c4)C(=O)N(C4CCC(=O)NC4=O)C6=O)C5)CC3)ccc2C1=O (some centres unmarked) [Compound 362] | – | – | < 10 | > 80 | – |
| CC1(C)[C@H](Oc2ccc(C#N)c(Cl)c2)C(C)(C)[C@H]1N1Cc2nc(C#CC3CCC(N4CCC5(CC4)CN(c4cc6c(cc4F)C(=O)N(C4CCC(=O)NC4=O)C6=O)C5)CC3)ccc2C1=O (some centres unmarked) [Compound 363] | – | – | 10 to 100 | 60 to 80 | – |
| CC1(C)[C@H](Oc2ccc(C#N)c(Cl)c2)C(C)(C)[C@H]1N1Cc2nc(C#CC3CCC(N4CCC5(CCN(c6ccc7c(c6)C(=O)N(C6CCC(=O)NC6=O)C7=O)C5)C4)CC3)ccc2C1=O (some centres unmarked) [Compound 364, 2-Chloro-4-((1r,3r)-3-(2-((4-(7-(2-(2,6-dioxopiperidin-3-yl)-1,3-dioxoisoindolin-5-yl)-2,7-Diazaspiro[4.4]nonan-2-yl)cyclohexyl)ethynyl)-5-oxo-5,7-dihydro-6H-pyrrolo[3,4-b]pyridin-6-yl)-2,2,4,4-tetramethylcyclobutoxy) benzonitrile] | – | – | < 10 | > 80 | – |
| CC1(C)[C@H](Oc2ccc(C#N)c(Cl)c2)C(C)(C)[C@H]1N1Cc2nc(C#CC3CCC(N4CCC5(CCN(c6ccc7c(c6)C(=O)N(C6CCC(=O)NC6=O)C7=O)C5)C4)CC3)ccc2C1=O (some centres unmarked) [Compound 365, 2-Chloro-4-((1r,3r)-3-(2-((4-(7-(2-(2,6-dioxopiperidin-3-yl)-1,3-dioxoisoindolin-5-yl)-2,7-Diazaspiro[4.4]nonan-2-yl)cyclohexyl)ethynyl)-5-oxo-5,7-dihydro-6H-pyrrolo[3,4-b]pyridin-6-yl)-2,2,4,4-tetramethylcyclobutoxy) benzonitrile] | – | – | 10 to 100 | – | ++++ (>80%) |
| CC1(C)[C@H](Oc2ccc(C#N)c(Cl)c2)C(C)(C)[C@H]1N1Cc2nc(C#CC3CCC(N4CCC5(CCN(c6cc7c(cc6F)C(=O)N(C6CCC(=O)NC6=O)C7=O)C5)C4)CC3)ccc2C1=O (some centres unmarked) [Compound 366, 2-Chloro-4-((1r,3r)-3-(2-((4-(7-(2-(2,6-dioxopiperidin-3-yl)-6-fluoro-1,3-dioxoisoindolin-5-yl)-2,7-diazaspiro[4.4]nonan-2-yl)cyclohexyl)ethynyl)-5-oxo-5,7-dihydro-6H-pyrrolo[3,4-b]pyridin-6-yl)-2,2,4,4-tetramethylcyclobutoxy) benzonitrile] | – | – | < 10 | – | ++++ (>80%) |
| CC1(C)[C@H](Oc2ccc(C#N)c(Cl)c2)C(C)(C)[C@H]1N1Cc2nc(C#CC3CCC(N4CCC5(CCN(c6cc7c(cc6F)C(=O)N(C6CCC(=O)NC6=O)C7=O)C5)C4)CC3)ccc2C1=O (some centres unmarked) [Compound 367, 2-Chloro-4-((1r,3r)-3-(2-((4-(7-(2-(2,6-dioxopiperidin-3-yl)-6-fluoro-1,3-dioxoisoindolin-5-yl)-2,7-diazaspiro[4.4]nonan-2-yl)cyclohexyl)ethynyl)-5-oxo-5,7-dihydro-6H-pyrrolo[3,4-b]pyridin-6-yl)-2,2,4,4-tetramethylcyclobutoxy) benzonitrile] | – | – | 100 to 300 | – | ++ (60%-40%) |
| CC1(C)[C@H](Oc2ccc(C#N)c(Cl)c2)C(C)(C)[C@H]1N1Cc2nc(C#CC3CCC(N4CC5(CCN(c6ccc7c(c6)C(=O)N(C6CCC(=O)NC6=O)C7=O)C5)C4)CC3)ccc2C1=O (some centres unmarked) [Compound 368, 2-Chloro-4-((1r,3r)-3-(2-((4-(6-(2-(2,6-dioxopiperidin-3-yl)-1,3-dioxoisoindolin-5-yl)-2,6-diazaspiro[3.4]octane-2-yl)cyclohexyl)ethynyl)-5-oxo-5,7-dihydro-pyrrolo[3,4-b]pyridin-6-yl)-2,2,4,4-tetramethylcyclobutoxy) benzonitrile] | – | – | 100 to 300 | 40 to 60 | – |
| CC1(C)[C@H](Oc2ccc(C#N)c(Cl)c2)C(C)(C)[C@H]1N1Cc2nc(C#CC3CCC(N4CC5(CCN(c6ccc7c(c6)C(=O)N(C6CCC(=O)NC6=O)C7=O)C5)C4)CC3)ccc2C1=O (some centres unmarked) [Compound 369, 2-Chloro-4-((1r,3r)-3-(2-((4-(6-(2-(2,6-dioxopiperidin-3-yl)-1,3-dioxoisoindolin-5-yl)-2,6-diazaspiro[3.4]octane-2-yl)cyclohexyl)ethynyl)-5-oxo-5,7-dihydro-pyrrolo[3,4-b]pyridin-6-yl)-2,2,4,4-tetramethylcyclobutoxy) benzonitrile] | – | – | 10 to 100 | – | +++ (80%-60%) |
| CC1(C)[C@H](Oc2ccc(C#N)c(Cl)c2)C(C)(C)[C@H]1N1Cc2nc(C#CC3CCC(N4CC5(CCN(c6cc7c(cc6F)C(=O)N(C6CCC(=O)NC6=O)C7=O)C5)C4)CC3)ccc2C1=O (some centres unmarked) [Compound 370] | – | – | 100 to 300 | – | ++ (60%-40%) |
| CC1(C)[C@H](Oc2ccc(C#N)c(Cl)c2)C(C)(C)[C@H]1N1Cc2nc(C#CC3CCC(N4CC5(CCN(c6cc7c(cc6F)C(=O)N(C6CCC(=O)NC6=O)C7=O)C5)C4)CC3)ccc2C1=O (some centres unmarked) [Compound 371] | – | – | 10 to 100 | – | ++++ (>80%) |
| CC1(C)[C@H](Oc2ccc(C#N)c(Cl)c2)C(C)(C)[C@H]1N1Cc2nc(C#CC3CCC(N4CCC5(CN(c6ccc7c(c6)C(=O)N(C6CCC(=O)NC6=O)C7=O)C5)C4)CC3)ccc2C1=O (some centres unmarked) [Compound 372] | – | – | > 300 | < 40 | – |
| CC1(C)[C@H](Oc2ccc(C#N)c(Cl)c2)C(C)(C)[C@H]1N1Cc2nc(C#CC3CCC(N4CCC5(CN(c6ccc7c(c6)C(=O)N(C6CCC(=O)NC6=O)C7=O)C5)C4)CC3)ccc2C1=O (some centres unmarked) [Compound 373] | – | – | > 300 | – | – |
